PMC2763540 (Chemistry & biology, 2009)
Where “and” joins values, the source holds several entries; their conditions need not be identical. Equal values may be shown once. Entries after “also recorded” stand apart in the source; their conditions may differ. Read-outs that look alike come from different tables or passages of the source.

How the values were obtained:
[1] = test system: voltage-gated sodium channels; format: cell-based, mouse (Swiss-Webster)
[2] = test system: voltage-gated sodium channels; conditions: cited from earlier work
[3] = test system: hoiamide A-induced elevation of neuronal [Na+]i in neocortical neurons; format: cell-based, mouse (Swiss-Webster)
[4] = test system: neurotoxin site 2 on VGSCs; format: binding, mouse (Swiss-Webster)
[5] = test system: neurotoxin site 2 on VGSCs; conditions: cited from earlier work
[6] = test system: neurotoxin site 2 on VGSCs; format: cell-based, mouse (Swiss-Webster)
[7] = test system: mouse neocortical neurons
[8] = test system: neurotoxin site 5 on VGSCs; conditions: cited from earlier work

With batrachotoxin the “elevation of neuronal [Na+]i / sodium influx” value [1] was “rapid and concentration-dependent elevation of neuronal [Na^+]i”, the “maximum response, elevation of neuronal [Na+]i” value [1] was “greater than 60 mM” and the EC50 ([1]; read-out: EC50 for batrachotoxin-induced elevation of neuronal [Na+]i) was 11.4 nM. The “type of agonism at neurotoxin site 2” value [2] was “full agonist at neurotoxin site 2”.

In the case of `NC1=N[C@H](O)[C@H]2[C@H]3O[C@]4(O)O[C@@H]([C@@H](O)[C@@]2(N1)[C@@H]4O)[C@]3(O)CO` [TTX, tetrodotoxin], the “effect on hoiamide A-induced elevation of neuronal [Na+]i” value [3] is reported as “eliminated the hoiamide A-induced elevation of neuronal [Na^+]i; also recorded: inhibition of hoiamide A-induced elevation of neuronal [Na^+]i”.

In the case of `COc1ccc(C(=O)O[C@H]2CC[C@@]3(C)[C@@H]4CC[C@H]5[C@]6(O)C[C@H](O)[C@@]7(O)[C@@H](CN8C[C@@H](C)CC[C@H]8[C@@]7(C)O)[C@]6(O)C[C@@]53O[C@]24O)cc1OC` [veratridine], the “inhibition of [3H]BTX specific binding” value [4] is reported as “much less potent than hoiamide A; also recorded: inhibit the specific binding of [^3H]BTX to VGSCs” and the IC50 ([4]; read-out: IC50, inhibition of [3H]BTX specific binding) is reported as 33000 nM.

For `C=C(C=O)C[C@@H]1C[C@H](O)[C@]2(C)O[C@@H]3C[C@@H]4O[C@@H]5C[C@]6(C)O[C@]7(C)CC[C@@H]8O[C@@H]9C[C@]%10(C)O[C@@H]%11C(C)=CC(=O)O[C@H]%11C[C@H]%10O[C@H]9C[C@@H](C)[C@H]8O[C@H]7C[C@H]6O[C@H]5C/C=C\[C@H]4O[C@H]3C[C@H]2O1` [brevetoxin], the “effect on [3H]BTX specific binding (allosteric)” value [5] is listed as “dramatically increased”.

With brevetoxin 3 [PbTx-3] the “sodium influx when given alone” value [1] was “inactive alone” and the “effect on maximum response of hoiamide A-induced sodium influx” value [3] was “significant increase in the maximum response; also recorded: enhance hoiamide A-induced elevation of neuronal [Na^+]i”.

For `CCC[C@@H](C)[C@H](O)[C@H](C)[C@H]1OC(=O)[C@H]([C@@H](C)O)NC(=O)[C@H](C(C)C)OC(=O)[C@H](C)[C@H](O)[C@H]([C@@H](C)CC)NC(=O)[C@@]2(C)CSC(=N2)[C@@]2(C)CSC(=N2)c2csc(n2)C[C@H](OC)[C@@H]1C` [hoiamide A], the “elevation of neuronal [Na+]i / sodium influx” value [1] was “rapid and concentration-dependent elevation of neuronal [Na^+]i; also recorded: VGSC activator; also recorded: maximum sodium influx that was less than that of the full agonist, batrachotoxin”, the “maximum response, elevation of neuronal [Na+]i” value [1] was “less than 20 mM” and the “relative efficacy for elevation of neuronal [Na+]i” value [1] was 0.38. The “type of agonism at neurotoxin site 2 on VGSCs” value [1] was “partial agonist at neurotoxin site 2; also recorded: partial agonism at the neurotoxin site 2 on VGSCs”, the EC50 ([1]; read-out: EC50 for hoiamide-induced sodium influx) was 2310 nM and the “inhibition of [3H]BTX specific binding” value [4] was “concentration-dependent inhibition of [^3H]BTX specific binding; also recorded: inhibit the specific binding of [^3H]BTX to VGSCs”. The IC50 ([4]; read-out: IC50, inhibition of [3H]batrachotoxin binding) was 92.8 nM, the “change of hoiamide A EC50 value by modulator” value [3] was “without altering the hoiamide A EC50 value; also recorded: no corresponding effect on the hoiamide A EC50 value” and the “maximum response of hoiamide A-induced sodium influx, AUC” value [3] was 89.9 fluorescence x min and 141.4 fluorescence x min and 143.4 fluorescence x min. For the same molecule, the “effect on batrachotoxin-induced sodium influx (SBFI AUC)” value [6] was “concentration-dependent reduction in batrachotoxin-induced sodium influx; also recorded: reversal of batrachotoxin (30 nM)-induced elevation of neuronal [Na^+]i”, the IC50 [7] was 47.5 nM and the “cytotoxicity to cancer cells” value (cancer cells) was “modest cytotoxicity”.

With `NS(=O)(=O)c1cccc2c1c([N+](=O)[O-])cc1nc(O)c(O)nc12` [NBQX] the “effect on hoiamide A-induced Na+ influx” value [3] was “no effect”.

For `CC1(C)[C@H](C(=O)O[C@H](C#N)c2cccc(Oc3ccccc3)c2)[C@@H]1C=C(Br)Br` [deltamethrin], the “sodium influx when given alone” value [1] is given as “inactive alone”, the “effect on maximum response of hoiamide A-induced sodium influx” value [3] is given as “significantly increased the maximum response; also recorded: enhance hoiamide A-induced elevation of neuronal [Na^+]i” and the “effect on [3H]BTX specific binding (allosteric)” value [5] is given as “dramatically increased”.

In the case of `C=CC/C=C\C=C/[C@H]1O[C@H]2C[C@H]3O[C@H]4CC[C@H]5O[C@H]6C[C@@]7(C)O[C@@]8(C)[C@@H](O)C[C@H](CCCO)O[C@@H]8C[C@@H]7O[C@@H]6C[C@@H]5O[C@]4(C)C[C@]3(C)O[C@@H]2C=C[C@]1(C)O` [gambierol], the “effect on PbTx-1 induced elevation of neuronal [Na+]i” value [8] is given as “inhibited the full agonist PbTx-1 induced elevation of neuronal [Na^+]i” and the “type of agonism at neurotoxin site 5” value [8] is given as “low efficacy partial agonist at neurotoxin site 5”.

In the case of `C[C@]12N[C@H](Cc3ccccc31)c1ccccc12` [MK-801], the “effect on hoiamide A-induced elevation of neuronal [Na+]i” value [3] is reported as “partial, but statistically significant, decrease”.
